Laboratory results from patent publication US7253286B2, “Nitrogen-containing aromatic derivatives” (Eisai Co., Ltd, priority 2000, dated 2007).
pIC50: −log10 of the molar value.

Columns and labels:
[1] = tested on: Human Umbilical Vein Endothelial Cells (HUVECs); assay: Inhibition against invasive tube formation by vascular endothelial cells in response to stimulation by angiogenic factor mixture; type: cell-based; design: key: the number of tubes formed in the absence of the test substance was designated as +++; scored on the 5-level scale of +++, ++, +, +/−, −; scored on the 5-level scale of +++, ++, +, +/−, −; scored on the 5-level scale of +++, ++, +, +/−, −; − was assigned if absolutely no tubes formed; conditions: HUVEC on fibrin gel, EGF/FGF2/VEGF/HGF/TNF-α mixture, 6th day, MTT staining; for number of tubes formed in the fibrin gel (score) at 0.01 μM: test substance 0.01 μM; for number of tubes formed in the fibrin gel (score) at 0.1 μM: test substance 0.1 μM; for number of tubes formed in the fibrin gel (score) at 1.0 μM: test substance 1.0 μM
Description: Inhibition Against Invasive Tube Formation by Vascular Endothelial Cells in Response to Stimulation by Angiogenic Factor Mixture
Human Umbilical Vein Endothelial Cells (HUVECs) were isolated according to a reported method (Shinseikagaku Jikken Koza [New Biochemistry Experiment Lectures], “Saibo Baiyo Gijutsu” [Cell Culturing Techniques], p.197–202), and were cultured in a 5% CO2 incubator (37° C.) using EGM-2 medium (purchased from Clonetics Corp.) until the cells reached confluency. After adding 0.4 ml of bovine fibrinogen (purchased from Sigma Co.) to the inner well of a Transwell culturing plate (purchased from Coster Inc.), it was hardened with 0.7 units/ml of thrombin (purchased from Sigma Co.). The HUVECs were recovered using trypsin-EDTA and then suspended in human endothelial serum free medium basal growth medium (hereinafter abbreviated as SFM, purchased from GIBCO BRL), and 0.4 ml of the cell suspension (1.4×10^5 cells) was seeded onto the hardened fibrin gel and cultured for approximately 4 hours in a 5% CO2 incubator (37° C.). After 4 hours, there was added to the outer chamber of the Transwell 1.5 ml of an SFM solution containing a mixture of angiogenic factors {10 ng/ml EGF (purchased from GIBCO BRL), 30 ng/ml FGF2 (purchased from GIBCO BRL), 75 ng/ml VEGF (purchased from Wako Pure Chemical Industries Co., Ltd.), 50 ng/ml HGF (purchased from R&D Co.) and 7.5 ng/ml TNF-α (purchased from Genzyme Corp.) [The concentrations of the angiogenic factors differed slightly according to the HUVEC lot.]} and a diluted test substance, and culturing was carried out in a 5% CO2 incubator (37° C.). On the 2nd and 4th days after adding the test substance, the medium was exchanged with 1.5 ml of freshly prepared SFM solution containing the angiogenic factor mixture and test substance. Upon aspirating off the culture supernatant in the inner well on the 6th day after the initial addition of the test substance, 0.4 ml of a 3.3 mg/ml MTT solution dissolved in PBS (purchased from Sigma Corp.) was added and culturing was performed for approximately 1 hour in a 5% CO2 incubator (37° C.). The number of tubes formed in the fibrin gel stained with MTT was scored based on microscope observation. Specifically, the number of tubes formed in the absence of the test substance was designated as +++, while − was assigned if absolutely no tubes formed. The number of tubes formed in the presence of the test substance was scored on the 5-level scale of +++, ++, +, +/−, − to evaluate the strength of inhibition of the test substance.

[2] = tested on: Human Umbilical Vein Endothelial Cells (HUVECs); assay: Inhibition against sandwich tube formation by vascular endothelial cells in response to stimulation by VEGF; type: cell-based; conditions: HUVEC in collagen gel sandwich, stimulation by VEGF (25 ng/ml VEGF and 10 ng/ml EGF), 4th day, total tube length, read-out: IC50 (concentration required for 50% inhibition of tube formation)
Description: Inhibition Against Sandwich Tube Formation by Vascular Endothelial Cells in Response to Stimulation by Angiogenic Factor
Human Umbilical Vein Endothelial Cells (HUVECS) were isolated by the same method as in Pharmacological Test Example 1, and were cultured in a 5% CO2 incubator (37° C.) using EGM-2 medium (purchased from Clonetics Corp.) until the cells reached confluency.
An ice-cooled mixture of collagen: 5× RPMI 1640: reconstitution buffer (all purchased from Nitta Gelatin, Inc.) at 7:2:1 was dispensed at 0.4 ml into each well of a 24-well plate, and then stationed for 40 minutes in a 5% CO2 incubator (37° C.) for gelling. The HUVECs were recovered using trypsin-EDTA and then suspended in human endothelial serum free medium (SFM, purchased from GIBCO BRL) containing added angiogenic factors [20 ng/ml FGF2 (purchased from GIBCO BRL) and 10 ng/ml EGF (purchased from GIBCO BRL), or 25 ng/ml VEGF (purchased from Wako Pure Chemical Industries Co., Ltd.) and 10 ng/ml EGF, or 30 ng/ml HGF (purchased from R&D Co.) and 10 ng/ml EGF], and the cell suspension was added at 0.4 ml to each well (with the cell counts differing slightly according to the HUVEC lot), and cultured overnight in a 5% CO2 incubator (37° C.). On the following day, the medium on the upper layer was aspirated off, and then 0.4 ml of an ice-cooled mixture of collagen: 5× RPMI 1640: reconstitution buffer (all purchased from Nitta Gelatin, Inc.) at 7:2:1 was superposed into each well prior to stationing for 4 hours in a 5% CO2 incubator (37° C.) for gelling. After adding 1.5 ml of an SFM solution containing each of the aforementioned angiogenic factors and a diluted test substance onto the upper layer, culturing was performed in a 5% CO2 incubator (37° C.). Upon aspirating off the culture supernatant in each well on the 4th day after addition of the test substance, 0.4 ml of a 3.3 mg/ml MTT solution dissolved in PBS (purchased from Sigma Corp.) was added to each well and culturing was performed for approximately 2 hours in a 5% CO2 incubator (37° C.). The tubes formed in the collagen gel of each well were stained by the MTT, the tube images were loaded into a computer (Macintosh), and the total length of the tubes was determined by image analysis software “MacScope” (purchased from Mitani Corp.). The ratio of the total length of the tubes formed in the well containing the test substance with respect to the total length of the tubes formed in the well containing no test substance was expressed as a percentage, and the concentration of each test substance required for 50% inhibition of tube formation (IC50) was determined from the ratio value.

| Structure (SMILES) | number of tubes formed in the fibrin gel (score) at 0.01 μM [1] | number of tubes formed in the fibrin gel (score) at 0.1 μM [1] | number of tubes formed in the fibrin gel (score) at 1.0 μM [1] | pIC50 [2] |
| --- | --- | --- | --- | --- |
| O=C(Nc1ccc(Oc2ncnc3[nH]c(-c4ccccc4)cc23)cc1)Nc1cccc(F)c1 [Example 172, 1-(3-Fluorophenyl)-3-[4-(6-phenyl-7H-pyrrolo[2,3-d]pyrimidin-4-yloxy)phenyl]urea] | + | +/− | +/− |  |
| COc1cc2nccc(Oc3ccc(NC(=O)NC4CC4)c(Cl)c3)c2cc1C(N)=O [Example 368, 4-(3-Chloro-4-(cyclopropylaminocarbonyl)aminophenoxy)-7-methoxy-6-quinolinecarboxamide] | − | − | − | 8.27 |
| CN1CCC(COc2cc3nccc(Oc4ccc(NC(=O)NC5CC5)c(Cl)c4)c3cc2C#N)CC1 [Example 422, N-(2-Chloro-4-((6-cyano-7-((1-methyl-4-piperidyl)methoxy)-4-quinolyl)oxy)phenyl)-N′-cyclopropylurea] | + | − | − | 8.32 |
| CCN(CC)CCCOc1cc2nccc(Oc3ccc4c(ccn4C(=O)NC4CC4)c3)c2cc1C#N [Example 298, 5-[6-Cyano-7-(3-diethylaminopropoxy)quinolin-4-yloxy]indole-1-carboxylic acid cyclopropylamide] | +/− | − | − | 9.15 |
| O=C(CCCN1CCC(O)CC1)Nc1cc(Oc2ccc3c(ccn3C(=O)Nc3ccccc3)c2)ccn1 [Example 189, N1-Phenyl-5-[(2-{[4-(4-hydroxypiperidino)butanoyl]amino}-4-pyridyl)oxy]-1H-1-indolecarboxamide] | +/− | − | − | 9.52 |
| O=C(Nc1cc(Oc2ccc3c(ccn3C(=O)NC3CC3)c2)ccn1)C1CC1 [Example 212, N1-Cyclopropyl-5-({2-[(cyclopropylcarbonyl)amino]-4-pyridyl}oxy)-1H-1-indolecarboxamide] | +/− | − | − |  |
| COc1cc2nccc(Sc3ccc(NC(=O)Nc4ccc(F)cc4)s3)c2cc1C(N)=O [Example 245, 4-(5-(3-(4-Fluorophenyl)ureido)thiophen-2-ylsulfanyl)-7-methoxyquinoline-6-carboxamide] | +/− | − | − |  |
| COc1cc2nccc(Oc3ccc4c(ccn4C(=O)NC(C)C)c3)c2cc1C(N)=O [Example 320, 6-Carbamoyl-7-methoxy-4-[1-(1-methyl)ethylcarbamoyl-1H-indol-5-yloxy]quinoline] |  |  |  | 8.60 |
| COc1cc2nccc(Oc3ccc4c(ccn4C(=O)NCCCCl)c3)c2cc1C(N)=O [Example 325, 6-Carbamoyl-4-[1-(3-chloropropylcarbamoyl)1H-indol-5-yloxy]-7-methoxyquinoline] |  |  |  | 9.00 |
| N#Cc1cc2c(Oc3ccc(NC(=O)Nc4ccc(F)cc4)c(F)c3)ccnc2cc1OC[C@H](O)CN1CCCCC1 [Example 497, N-(4-{6-Cyano-7-[(2R)-2-hydroxy-3-(piperidin-1-yl)propoxy]quinolin-4-yloxy}-2-fluorophenyl)-N′-(4-fluorophenyl)urea] |  |  |  | 8.34 |
| CNC(=O)c1cc2c(Oc3ccc(NC(=O)NC4CC4)c(Cl)c3)ccnc2cc1OC [Example 442, N6-Methyl-4-(3-chloro-4-(((cyclopropylamino)carbonyl)amino)phenoxy)-7-methoxy-6-quinolinecarboxamide] |  |  |  | 8.14 |
| O=C(Nc1ccc(Oc2ncnc3[nH]c(-c4ccc(OCCCN5CCCC5)cc4)cc23)cc1Cl)NC1CC1 [Example 155] |  |  |  | 8.85 |
| COc1cc2nccc(Oc3ccc(NC(=O)Nc4ccccc4)cn3)c2cc1OC [Example 129, N-6-((6,7-Dimethoxy-4-quinolyl)oxy)-3-pyridyl-N′-phenylurea] |  |  |  | 7.40 |
| COCCOc1cc2nccc(Oc3ccc(NC(=O)NC4CC4)cc3)c2cc1C#N [Example 23, N-(4-(6-cyano-7-(2-methoxyethoxy)-4-quinolyl)oxyphenyl)-N′-cyclopropylurea] |  |  |  | 7.00 |
| N#Cc1cc2c(Oc3ccc(NC(=O)Nc4ccc(F)cc4)c(F)c3)ccnc2cc1OCC(O)CN1CCOCC1 (stereo not shown) [Example 494, N-{4-[6-Cyano-7-(2-hydroxy-(3-morpholin-4-yl)propoxy)quinolin-4-yloxy]-2-fluorophenyl}-N′-(4-fluorophenyl)urea] |  |  |  | 8.03 |
| O=C(Nc1cc(Oc2ccc3c(ccn3C(=O)Nc3ccccc3)c2)ccn1)C1CCN(CC2CC2)CC1 [Example 198, N1-Phenyl-5-{[2-({[(1-cyclopropylmethyl)-4-piperidyl]carbonyl}amino)-4-pyridyl]oxy}-1H-1-indolecarboxamide] |  |  |  | 8.82 |
| COC(=O)c1cc2c(Oc3ccc(N(C)C(=O)Nc4ccc(F)cc4)cc3)ccnc2cc1OC [Example 433, Methyl 4-(4-(((4-fluoroanilino)carbonyl)(methyl)amino)phenoxy)-7-methoxy-6-quinoline carboxylate] |  |  |  | 8.25 |
| CN1CCCC(COc2cc3nccc(Oc4ccc(NC(=O)Nc5nccs5)c(F)c4)c3cc2C#N)C1 (stereo not shown) [Example 505, N-{4-[6-Cyano-7-(1-methylpiperidin-3-ylmethoxy)quinolin-4-yloxy]-2-fluorophenyl}-N′-(2-thiazolyl)urea] |  |  |  | 8.05 |
| O=C(Nc1cc(Oc2ccc3c(ccn3C(=O)NCCF)c2)ccn1)C1CC1 [Example 215, N1-(2-Fluoroethyl)-5-({2-[(cyclopropylcarbonyl)amino]-4-pyridyl}oxy)-1H-1-indolecarboxyamide] |  |  |  | 7.66 |
